Measured values from patent publication US20220317132A1, “USE OF ENDOTHELIN RECEPTOR INHIBITOR FOR INHIBITING EXOSOME SECRETION OR INHIBITING PD-L1 EXPRESSION” (KYUNGPOOK NATIONAL UNIVERSITY INDUSTRY-ACADEMIC COOPERATION …, priority 2019, published 2022).

Test system: MDA-MB231 cells
Test: Cytotoxic effect (MTT analysis)
Conditions: 24 hours, sulfisoxazole 100 μM, ambrisentan 1, 10, 100 μM, macitentan 100, 1000 nM, bosentan 10, 50 μM, FIG. 1
Procedure: MCF10A cells were cultured in Mammary epithelial cell growth medium (MEGM, Lonza) added with 5% fetal bovine serum, 1% antibiotics, 52 μg/ml bovine pituitary extract, 0.5 μg/ml hydrocortisone, 10 ng/ml EGF, and 5 μg/ml insulin. MDA-MB231 and MCF7 cells were cultured in Dulbecco's modified Eagle's medium (DMEM, Hyclone) added with 10% fetal bovine serum and 1% antibiotics.
MDA-MB231 cells were seeded at 1×10^5/well in a 24-well plate, and then cultured for 24 hours to allow time for cell stabilization. After culturing for 24 hours, the cells were treated with 100 μM of sulfisoxazole, 1, 10, and 100 μM of ambrisentan, 100 and 1000 nM of macitentan, and 10 and 50 μM of bosentan and cultured for 24 hours. Then, after treatment with MTT tetrazolium reagent, the cells were cultured for 4 hours. After 4 hours, reduced MTT formazan (3-(4,5-dimethylthiazol-2-yl)-2,5 diphenyl-tetrazolium bromide) was measured at 595 nm absorbance to confirm cell proliferation effects.

Row | SMILES | cytotoxicity (MTT, absorbance 595 nm)
1 | Cc1noc(NS(=O)(=O)c2ccc(N)cc2)c1C [sulfisoxazole] | no cytotoxicity
2 | COc1ccccc1Oc1c(NS(=O)(=O)c2ccc(C(C)(C)C)cc2)nc(-c2ncccn2)nc1OCCO [bosentan] | no cytotoxicity
